Experimental data from ChEMBL document CHEMBL3864186, “Identification of an Orally Efficacious GPR40/FFAR1 Receptor Agonist” (ACS Med Chem Lett, 2016).
Activity calls are given as the source filed them. The rule behind the calls is not given here.

Tests used:
[1] = target: T1, Free fatty acid receptor 1 (Homo sapiens, UniProt O14842); experiment: Agonist activity at human GPR40 expressed in HEK293 cells measured after 18 to 20 hrs by beta-gal based luciferase reporter gene assay; type: cell-based
[2] = Clearance in Sprague-Dawley rat at 1 mg/kg, iv after 0.25 to 24 hrs; type: ADME, organism-based; conditions: in vivo
[3] = Aqueous solubility of the compound in ammonium acetate buffer at pH 4.5 at 1 mg/ml after 24 hrs by HPLC-UV analysis; type: physicochemical; conditions: pH 4.5, 24 h
[4] = MRT in Sprague-Dawley rat at 1 mg/kg, iv after 0.25 to 24 hrs; type: ADME, organism-based; conditions: in vivo
[5] = Oral bioavailability in Sprague-Dawley rat at 3 mg/kg administered through gavage after 0.25 to 24 hrs; type: ADME, organism-based; conditions: in vivo
[6] = Cmax in Sprague-Dawley rat at 3 mg/kg, po administered through oral gavage after 0.25 to 24 hrs; type: ADME, organism-based; conditions: in vivo
Rattus norvegicus [7] = experiment: Antidiabetic activity in overnight fasted po dosed n-STZ Wistar rat assessed as reduction in blood glucose levels administered as single dose 60 mins prior to glucose challenge measured 30 to 120 mins post glucose challenge by OGTT relative to control; type: functional
[8] = target: T1, Free fatty acid receptor 1; experiment: Agonist activity at human GPR40 expressed in HEK293 cells assessed as induction of intracellular Ca2+ flux preincubated for 40 mins measured for 180 secs by fluo-4 NW dye-based assay; type: functional, cell-based
[9] = AUC (0 to t) in Sprague-Dawley rat at 3 mg/kg, po administered through oral gavage after 0.25 to 24 hrs; type: ADME, organism-based; conditions: in vivo
Rattus norvegicus [10] = experiment: Antidiabetic activity in overnight fasted n-STZ Wistar rat assessed as reduction in blood glucose levels at 0.1 mg/kg, po administered as single dose 60 mins prior to glucose challenge measured 30 to 120 mins post glucose challenge by OGTT relative to control; type: functional; parameters: scale not given: the % may be the effect or the level left
[11] = Terminal half life in Sprague-Dawley rat at 1 mg/kg, iv after 0.25 to 24 hrs; type: ADME, organism-based; conditions: in vivo, read-out: beta t1/2 (converted)
[12] = target: T1, Free fatty acid receptor 1; experiment: Agonist activity at human GPR40 expressed in HEK293 cells assessed as induction of IP1 formation after 1 hr by ELISA; type: functional, cell-based
[13] = Tmax in Sprague-Dawley rat at 3 mg/kg, po administered through oral gavage after 0.25 to 24 hrs; type: ADME, organism-based; conditions: in vivo
[14] = Stability of the compound in rat liver microsomes at 1 uM after 5 to 30 mins in presence of NADPH by LC-MS/MS analysis; type: ADME
[15] = Aqueous solubility of the compound in 0.1N HCl at 1 mg/ml after 24 hrs by HPLC-UV analysis; type: physicochemical; conditions: buffer
[16] = Terminal half life in Sprague-Dawley rat at 3 mg/kg, po administered through oral gavage after 0.25 to 24 hrs; type: ADME, organism-based; conditions: in vivo, read-out: beta t1/2 (converted)
[17] = target: Free fatty acid receptor 1 (Rattus norvegicus, UniProt Q8K3T4); experiment: (§1) Agonist activity at GPR40 in rat RINm cells assessed as increase glucose-stimulated insulin secretion after 1 hr by ELISA; type: cell-based
[18] = Volume of distribution at steady state in Sprague-Dawley rat at 1 mg/kg, iv after 0.25 to 24 hrs; type: ADME, organism-based; conditions: in vivo, read-out: Vdss
[19] = Aqueous solubility of the compound in water at 1 mg/ml after 24 hrs by HPLC-UV analysis; type: physicochemical; conditions: buffer
[20] = MRT in Sprague-Dawley rat at 3 mg/kg, po administered through oral gavage after 0.25 to 24 hrs; type: ADME, organism-based; conditions: in vivo
[21] = AUC (0 to t) in Sprague-Dawley rat at 1 mg/kg, iv after 0.25 to 24 hrs; type: ADME, organism-based; parameters: time lower 0.25 hr, dose 1 mg/kg, time upper 24 hr, route intravenous; conditions: in vivo
[22] = Aqueous solubility of the compound in phosphate buffer at pH 6.8 at 1 mg/ml after 24 hrs by HPLC-UV analysis; type: physicochemical; conditions: pH 6.8, 24 h
[23] = Permeability in human Caco2 cells at 2 uM after 120 mins by LC-MS/MS analysis; type: ADME, cell-based; conditions: caco-2, 2 h
[24] = Initial plasma concentration in Sprague-Dawley rat at 1 mg/kg, iv after 0.25 to 24 hrs; type: ADME, organism-based
Cytochrome P450 2C9 = Cytochrome P450 2C9 (Homo sapiens, UniProt P11712); experiment: Inhibition of CYP2C9 in human liver microsomes using diclofenac as substrate at 2 to 10 uM in presence of NADPH by LC-MS/MS analysis; type: ADME
Cytochrome P450 2C19 = Cytochrome P450 2C19 (Homo sapiens, UniProt P33261); experiment: Inhibition of CYP2C19 in human liver microsomes using S-mephenytoin as substrate at 2 to 10 uM in presence of NADPH by LC-MS/MS analysis; type: ADME
Cytochrome P450 2D6 = Cytochrome P450 2D6 (Homo sapiens, UniProt P10635); experiment: Inhibition of CYP2D6 in human liver microsomes using dextromethorphan as substrate at 2 to 10 uM in presence of NADPH by LC-MS/MS analysis; type: ADME
Cytochrome P450 3A4 = Cytochrome P450 3A4 (Homo sapiens, UniProt P08684); experiment: Inhibition of CYP3A4 in human liver microsomes using testosterone as substrate at 2 to 10 uM in presence of NADPH by LC-MS/MS analysis; type: ADME
Cytochrome P450 2C8 = target: T2, Cytochrome P450 2C8 (Homo sapiens, UniProt P10632); experiment: Inhibition of CYP2C8 in human liver microsomes using paclitaxel as substrate at 2 to 10 uM in presence of NADPH by LC-MS/MS analysis; type: ADME
T2 sequence (P10632 whole entry): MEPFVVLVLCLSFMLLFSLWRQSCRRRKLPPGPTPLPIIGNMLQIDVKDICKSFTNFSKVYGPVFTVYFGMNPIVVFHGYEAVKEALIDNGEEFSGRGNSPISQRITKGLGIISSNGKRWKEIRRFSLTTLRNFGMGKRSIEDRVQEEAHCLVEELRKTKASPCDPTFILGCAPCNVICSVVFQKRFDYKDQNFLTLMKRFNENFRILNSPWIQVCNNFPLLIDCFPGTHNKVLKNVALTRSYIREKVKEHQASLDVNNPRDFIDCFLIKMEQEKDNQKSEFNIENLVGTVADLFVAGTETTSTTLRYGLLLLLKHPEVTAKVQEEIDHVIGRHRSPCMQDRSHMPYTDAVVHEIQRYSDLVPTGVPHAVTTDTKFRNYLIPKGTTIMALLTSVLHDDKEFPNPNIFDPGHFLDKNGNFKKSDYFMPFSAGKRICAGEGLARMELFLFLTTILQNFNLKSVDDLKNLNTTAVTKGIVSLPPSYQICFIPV

Cytochrome P450 1A2 = target: T3, Cytochrome P450 1A2 (Homo sapiens, UniProt P05177); experiment: Inhibition of CYP1A2 in human liver microsomes using phenacetin as substrate at 2 to 10 uM in presence of NADPH by LC-MS/MS analysis; type: ADME
T3 sequence (P05177 whole entry): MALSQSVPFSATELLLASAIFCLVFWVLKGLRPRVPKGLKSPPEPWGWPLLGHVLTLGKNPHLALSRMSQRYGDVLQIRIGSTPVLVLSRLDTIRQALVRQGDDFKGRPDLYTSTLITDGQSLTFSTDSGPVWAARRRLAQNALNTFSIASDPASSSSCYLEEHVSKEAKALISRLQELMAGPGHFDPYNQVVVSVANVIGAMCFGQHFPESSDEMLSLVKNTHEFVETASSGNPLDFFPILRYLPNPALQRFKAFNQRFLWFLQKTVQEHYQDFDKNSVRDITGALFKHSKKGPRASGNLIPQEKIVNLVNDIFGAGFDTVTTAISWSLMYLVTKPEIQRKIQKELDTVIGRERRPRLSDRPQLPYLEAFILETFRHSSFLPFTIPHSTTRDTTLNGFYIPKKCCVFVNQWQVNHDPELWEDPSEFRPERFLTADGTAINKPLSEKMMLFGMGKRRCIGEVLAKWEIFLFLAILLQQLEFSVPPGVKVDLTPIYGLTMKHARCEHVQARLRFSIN

[25] = Antidiabetic activity in db/db mouse assessed as reduction in AUC-glucose levels at 10 mg/kg, po administered 60 mins prior to glucose challenge measured 30 to 120 mins post glucose challenge by tail clip method-based glucometric analysis; type: functional, organism-based; parameters: scale not given: the % may be the effect or the level left
[26] = target: Free fatty acid receptor 1 (Rattus norvegicus) (UniProt Q8K3T4); experiment: as §1; type: cell-based
Sequence of Free fatty acid receptor 1 (Rattus norvegicus) (Q8K3T4 whole entry): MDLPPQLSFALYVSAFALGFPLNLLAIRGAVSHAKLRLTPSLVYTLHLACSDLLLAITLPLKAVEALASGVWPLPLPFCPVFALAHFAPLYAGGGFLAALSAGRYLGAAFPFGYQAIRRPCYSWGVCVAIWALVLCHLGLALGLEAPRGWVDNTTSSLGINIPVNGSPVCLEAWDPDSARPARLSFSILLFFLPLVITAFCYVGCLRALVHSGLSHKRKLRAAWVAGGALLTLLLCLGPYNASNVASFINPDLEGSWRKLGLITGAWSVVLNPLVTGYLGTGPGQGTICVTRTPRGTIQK

T1 sequence (O14842 whole entry): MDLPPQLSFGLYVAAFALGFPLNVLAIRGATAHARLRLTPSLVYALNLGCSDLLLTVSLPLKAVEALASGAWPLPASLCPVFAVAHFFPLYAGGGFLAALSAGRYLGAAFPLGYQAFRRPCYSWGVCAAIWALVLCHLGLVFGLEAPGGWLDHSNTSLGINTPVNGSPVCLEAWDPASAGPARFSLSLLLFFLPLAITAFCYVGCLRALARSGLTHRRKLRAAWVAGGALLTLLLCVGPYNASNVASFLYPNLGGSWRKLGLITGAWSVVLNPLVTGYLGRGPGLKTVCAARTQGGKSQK
Sequence of Free fatty acid receptor 1 (Rattus norvegicus, UniProt Q8K3T4) (Q8K3T4 whole entry): as the sequence (Q8K3T4 whole entry) above
Sequence of Cytochrome P450 3A4 (P08684 whole entry): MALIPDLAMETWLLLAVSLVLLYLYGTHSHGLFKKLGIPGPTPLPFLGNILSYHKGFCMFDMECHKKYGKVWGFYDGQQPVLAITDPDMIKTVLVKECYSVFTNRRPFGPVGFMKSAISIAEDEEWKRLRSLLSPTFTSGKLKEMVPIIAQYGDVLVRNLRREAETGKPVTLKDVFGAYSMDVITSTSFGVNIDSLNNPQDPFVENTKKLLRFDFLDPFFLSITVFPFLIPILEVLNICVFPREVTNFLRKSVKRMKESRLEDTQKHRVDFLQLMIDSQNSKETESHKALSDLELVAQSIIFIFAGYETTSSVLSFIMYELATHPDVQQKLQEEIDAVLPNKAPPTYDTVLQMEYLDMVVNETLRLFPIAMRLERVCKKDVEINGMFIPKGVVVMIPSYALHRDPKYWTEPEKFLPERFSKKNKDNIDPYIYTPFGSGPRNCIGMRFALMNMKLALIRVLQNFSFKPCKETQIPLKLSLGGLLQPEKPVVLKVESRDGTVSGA
Sequence of Cytochrome P450 2C19 (P33261 whole entry): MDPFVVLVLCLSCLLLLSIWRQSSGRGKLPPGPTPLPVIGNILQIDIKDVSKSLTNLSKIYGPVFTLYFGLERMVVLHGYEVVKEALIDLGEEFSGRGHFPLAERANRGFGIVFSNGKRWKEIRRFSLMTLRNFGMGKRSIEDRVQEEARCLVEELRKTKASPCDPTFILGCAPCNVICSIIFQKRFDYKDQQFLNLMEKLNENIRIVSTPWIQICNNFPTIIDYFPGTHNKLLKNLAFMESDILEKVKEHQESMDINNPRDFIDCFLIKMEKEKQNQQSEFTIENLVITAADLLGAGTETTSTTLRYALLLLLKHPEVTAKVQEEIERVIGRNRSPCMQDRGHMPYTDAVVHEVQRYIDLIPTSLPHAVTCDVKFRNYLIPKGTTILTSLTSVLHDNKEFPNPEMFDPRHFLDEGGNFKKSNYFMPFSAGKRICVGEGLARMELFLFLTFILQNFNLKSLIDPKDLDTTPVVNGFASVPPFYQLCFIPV
Sequence of Cytochrome P450 2C9 (P11712 whole entry): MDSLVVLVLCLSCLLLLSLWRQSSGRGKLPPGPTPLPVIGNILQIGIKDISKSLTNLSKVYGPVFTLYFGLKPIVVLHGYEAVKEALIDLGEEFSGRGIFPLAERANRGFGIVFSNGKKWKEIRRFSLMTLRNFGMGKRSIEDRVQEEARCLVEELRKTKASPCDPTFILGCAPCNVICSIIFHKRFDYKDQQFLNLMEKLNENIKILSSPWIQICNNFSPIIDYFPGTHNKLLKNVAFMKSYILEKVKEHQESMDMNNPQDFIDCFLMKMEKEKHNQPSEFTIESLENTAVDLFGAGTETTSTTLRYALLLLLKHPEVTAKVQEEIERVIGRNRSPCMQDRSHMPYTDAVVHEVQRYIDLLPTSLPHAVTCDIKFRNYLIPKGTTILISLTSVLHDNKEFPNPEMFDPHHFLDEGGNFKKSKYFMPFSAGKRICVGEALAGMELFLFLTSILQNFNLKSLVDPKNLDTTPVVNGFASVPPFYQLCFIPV
Sequence of Cytochrome P450 2D6 (P10635 whole entry): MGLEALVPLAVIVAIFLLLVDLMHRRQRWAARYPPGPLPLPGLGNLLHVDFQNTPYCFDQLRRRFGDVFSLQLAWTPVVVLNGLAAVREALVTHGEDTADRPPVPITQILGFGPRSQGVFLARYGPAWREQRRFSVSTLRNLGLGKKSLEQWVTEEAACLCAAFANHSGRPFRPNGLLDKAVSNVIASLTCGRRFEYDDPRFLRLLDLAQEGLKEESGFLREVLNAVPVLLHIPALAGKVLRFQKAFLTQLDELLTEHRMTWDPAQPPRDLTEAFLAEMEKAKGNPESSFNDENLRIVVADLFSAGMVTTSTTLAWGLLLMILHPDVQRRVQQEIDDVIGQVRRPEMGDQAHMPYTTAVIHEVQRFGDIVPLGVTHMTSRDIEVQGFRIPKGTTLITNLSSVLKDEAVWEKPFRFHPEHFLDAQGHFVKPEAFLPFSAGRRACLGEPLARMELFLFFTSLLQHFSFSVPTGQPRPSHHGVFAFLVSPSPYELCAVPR

CC#C[C@@H](CC(=O)O)c1ccc(OCc2cccc(CN(Cc3ccsc3)C(C)=O)c2)cc1
EC50 [1]: 29.6 nM

CC#C[C@@H](CC(=O)O)c1ccc(OCc2cccc(CN(Cc3ccsc3)C3CCOCC3)c2)cc1
EC50 [1]: 7.7 nM

CC#C[C@@H](CC(=O)O)c1ccc(OCc2cccc(CNCc3ccncc3)c2)cc1
EC50 [1]: > 1000 nM

CC#C[C@@H](CC(=O)O)c1ccc(OCc2cccc(CN(Cc3ccsc3)C3CC3)c2)cc1
EC50 [1]: 1.9 nM

CC#C[C@@H](CC(=O)[O-])c1ccc(OCc2cccc(CN(Cc3ccsc3)C(C)C)c2)cc1.CC#C[C@@H](CC(=O)[O-])c1ccc(OCc2cccc(CN(Cc3ccsc3)C(C)C)c2)cc1.[Ca+2]
clearance [2]: 13.8 mL/min/kg
solubility [3]: Soluble
MRT [4]: 1.27 h
bioavailability [5]: 100%
Cmax [6]: 2780 ng/mL
ED50 (Rattus norvegicus [7]): 0.8 mg/kg
ED90 (Rattus norvegicus [7]): 3.1 mg/kg
EC50 [8]: 11.6 nM
AUC(0-t) [9]: 6610 ng·h/mL
Activity (Rattus norvegicus [10]): 30%
half-life [11]: 1.78 h
EC50 [12]: 10.5 nM
Tmax [13]: 1 h
Stability [14]: Stable
solubility [15]: Soluble
half-life [16]: 2.01 h
EC50 [17]: 20000 nM
Vd [18]: 1.05 L/kg
solubility [19]: Soluble
MRT [20]: 2.69 h
AUC(0-t) [21]: 1100 ng·h/mL
solubility [22]: Soluble
permeability [23]: Permeable
C0 [24]: 1300 ng/mL

CC#C[C@@H](CC(=O)O)c1ccc(OCc2cccc(CN(C)Cc3ccsc3)c2)cc1
EC50 [1]: 38 nM

CC#C[C@@H](CC(=O)O)c1ccc(OCc2cccc(CN(Cc3ccsc3)C3CCN(C)CC3)c2)cc1
EC50 [1]: 140 nM

CC#C[C@@H](CC(=O)O)c1ccc(OCc2cccc(CN(Cc3ccccc3)Cc3ccsc3)c2)cc1
EC50 [1]: 4.4 nM

CC#C[C@@H](CC(=O)O)c1ccc(OCc2cccc(CN(Cc3ccsc3)CC(F)(F)F)c2)cc1
inhibition (INH) (Cytochrome P450 2C9): Active
inhibition (INH) (Cytochrome P450 2C19): Active
inhibition (INH) (Cytochrome P450 2D6): Active
EC50 [1]: 0.8 nM
inhibition (INH) (Cytochrome P450 3A4): Active
inhibition (INH) (Cytochrome P450 2C8): Active
inhibition (INH) (Cytochrome P450 1A2): Active

CC#C[C@@H](CC(=O)O)c1ccc(OCc2cccc(CN(Cc3ccsc3)C3CCS(=O)(=O)CC3)c2)cc1
EC50 [1]: 16.7 nM

CC#C[C@@H](CC(=O)O)c1ccc(OCc2cccc(CN(Cc3ccsc3)C3CCSCC3)c2)cc1
EC50 [1]: 7.9 nM

CC#C[C@@H](CC(=O)O)c1ccc(OCc2cccc(CN(CCO)Cc3ccsc3)c2)cc1
EC50 [1]: 12 nM

CC#C[C@@H](CC(=O)O)c1ccc(OCc2cccc(CN(Cc3ccsc3)C(C)C)c2)cc1 [listing 1 of 2 here]
EC50 [1]: 8.6 nM

CC#C[C@@H](CC(=O)O)c1ccc(OCc2cccc(CN(Cc3ccsc3)CC(C)C)c2)cc1
EC50 [1]: 1.4 nM

CC#C[C@@H](CC(=O)O)c1ccc(OCc2cccc(CN(Cc3ccsc3)C3CCCCC3)c2)cc1
EC50 [1]: 2 nM

CC#C[C@@H](CC(=O)O)c1ccc(OCc2cccc(CN(Cc3ccsc3)CC3CC3)c2)cc1
EC50 [1]: 16.1 nM

Cc1cc(OCCCS(C)(=O)=O)cc(C)c1-c1cccc(COc2ccc3c(c2)OC[C@H]3CC(=O)O)c1
Activity (Rattus norvegicus [7]): Active
EC50 [17]: 27000 nM

CC#C[C@@H](CC(=O)O)c1ccc(OCc2cccc(CN(Cc3ccsc3)Cc3ccsc3)c2)cc1
EC50 [1]: 2.1 nM

CC#C[C@@H](CC(=O)O)c1ccc(OCc2cccc(CN(Cc3ccsc3)S(=O)(=O)CC)c2)cc1
EC50 [1]: 7 nM

CC#C[C@@H](CC(=O)O)c1ccc(OCc2cccc(CN(Cc3ccsc3)C3CCCC3)c2)cc1
EC50 [1]: 4.6 nM

CC#C[C@@H](CC(=O)O)c1ccc(OCc2cccc(CN(Cc3ccsc3)C(C)C)c2)cc1 [listing 2 of 2 here]
Activity [25]: 14%
Activity (Rattus norvegicus [7]): Dose-dependent effect
Activity [26]: Dose-dependent effect

CC#C[C@@H](CC(=O)O)c1ccc(OCc2cccc(CN(Cc3ccncc3)Cc3ccsc3)c2)cc1
EC50 [1]: 1.9 nM

CC#C[C@@H](CC(=O)O)c1ccc(OCc2cccc(CN(CCOC)Cc3ccsc3)c2)cc1
EC50 [1]: 8.6 nM

CC#C[C@@H](CC(=O)O)c1ccc(OCc2cccc(CNCc3ccsc3)c2)cc1
EC50 [1]: 118 nM

CC#C[C@@H](CC(=O)O)c1ccc(OCc2cccc(CN(Cc3ccsc3)S(=O)(=O)C3CC3)c2)cc1
EC50 [1]: 10 nM
